≈ marks a conversion by molar mass, not a printed value.
Columns and labels:
Format in all cases: cell-based
E. coli #311 (MP) = assay: MIC, agar dilution method; details: Escherichia coli, 18 hours at 35° C., read-out: MIC
[1] = test system: E. coli UBMS 89-2 Tet sens; assay: MIC, agar dilution method; details: Escherichia coli, UBMS892TETSENS, 18 h, 18 hours at 35° C., read-out: MIC
E. coli UBMS 90-5 sens = assay: MIC, agar dilution method; details: Escherichia coli, UBMS905SENS, 18 hours at 35° C., read-out: MIC
[2] = test system: S. aureus UBMS 90-1 Tet M; assay: microbe, parasite or virus in culture; details: Staphylococcus aureus, UBMS901TETM, 18 h, 18 hours at 35° C.
S. aureus IVES 2943 = assay: MIC, agar dilution method; details: Staphylococcus aureus, IVES2943, 18 h
[3] = test system: S. aureus UBMS 88-7 Tet K; assay: microbe, parasite or virus in culture; details: Staphylococcus aureus, UBMS887TETK, 18 h, 18 hours at 35° C.
[4] = test system: S. aureus UBMS 88-5 Tet M; assay: microbe, parasite or virus in culture; details: Staphylococcus aureus, UBMS885TETM, 18 h
S. aureus ROSE (MP) = assay: MIC, agar dilution method; details: Staphylococcus aureus, 18 h, 18 hours at 35° C.
E. faecalis ATCC 29212 = assay: MIC, agar dilution method; details: Enterococcus faecalis, ATCC29212, 18 h, 18 hours at 35° C.
E. coli J3272 Tet C = assay: microbe, parasite or virus in culture; details: Escherichia coli, J3272TETC, 18 h
S. aureus IVES 1 983 = assay: MIC, agar dilution method; details: Staphylococcus aureus, IVES1983, 18 h
E. coli UBMS 90-4 Tet M = assay: microbe, parasite or virus in culture; details: Escherichia coli, UBMS904TETM, 18 h, 18 hours at 35° C.
E. coli PRP1 Tet A = assay: microbe, parasite or virus in culture; details: Escherichia coli, PRP1TETA, 18 h, 18 hours at 35° C.
[5] = test system: E. coli MC 4100 Tet sens.; assay: MIC, agar dilution method; details: Escherichia coli, 18 hours at 35° C., read-out: MIC
E. coli J2175 = assay: MIC, agar dilution method; details: Escherichia coli, 18 hours at 35° C., read-out: MIC
E. coli UBMS 89-1 Tet M = assay: microbe, parasite or virus in culture; details: Escherichia coli, UBMS891TETM, 18 h, 18 hours at 35° C.
[6] = test system: X. maltophilia NEMC 87210; assay: MIC, agar dilution method; details: Stenotrophomonas maltophilia, NEMC87210, 18 hours at 35° C., read-out: MIC
[7] = test system: Ps. acruginosa ATCC 27853; assay: MIC, agar dilution method; details: Ps. acruginosa ATCC 27853; 18 hours at 35° C.; read-out: MIC
[8] = test system: S. aureus UBMS 90-2 Tet M; assay: microbe, parasite or virus in culture; details: Staphylococcus aureus, UBMS902TETM, 18 h, 18 hours at 35° C.
S. mariescens FPOR 8733 = assay: MIC, agar dilution method; details: 18 h, 18 hours at 35° C.
[9] = test system: E. coli MC 4100 TNIOC Tet B; assay: microbe, parasite or virus in culture; details: Escherichia coli, 18 h, 18 hours at 35° C.
E. coli BAJ9003 IMP MUT = assay: microbe, parasite or virus in culture; details: Escherichia coli, BAJ9003IMPMUT, 18 h, 18 hours at 35° C.
[10] = test system: S. hemolyticus AVHAH 88-3; assay: MIC, agar dilution method; details: Streptococcus pyogenes, AVHAH883, 18 hours at 35° C., read-out: MIC
E. coli UBMS 88-1 Tet B = assay: microbe, parasite or virus in culture; details: Escherichia coli, UBMS881TETB, 18 h, 18 hours at 35° C.
E. coli ATCC 25922 = assay: MIC, agar dilution method; details: Escherichia coli, ATCC25922, 18 hours at 35° C., read-out: MIC
Enterococcus 12201 = assay: MIC, agar dilution method; details: Enterococcus, 12201, 18 h, 18 hours at 35° C.
S. aureus NEMC 8769 = assay: MIC, agar dilution method; details: Staphylococcus aureus, NEMC8769, 18 h
S. aureus UBMS 88-4 = assay: MIC, agar dilution method; details: Staphylococcus aureus, UBMS884, 18 hours at 35° C., read-out: MIC
E. coli J3272 Tet D = assay: microbe, parasite or virus in culture; details: Escherichia coli, J3272TETD, 18 h
S. aureus UBMS 90-3 = assay: MIC, agar dilution method; details: Staphylococcus aureus, UBMS903, 18 h
S. aureus SMITH (MP) = assay: MIC, agar dilution method; details: Staphylococcus aureus, 18 h, 18 hours at 35° C.
S. aureus ATCC 29213 = assay: MIC, agar dilution method; details: Staphylococcus aureus, ATCC29213, 18 h, 18 hours at 35° C.

Work on `CN(C)CC(=O)Nc1c(O)c2c(c(N(C)C)c1Cl)CC1CC3[C@H](N(C)C)C(O)=C(C(N)=O)C(=O)[C@@]3(O)C(O)=C1C2=O` (stereo partly drawn) [B, [4S-(4α,12aα)]-8-Chloro-4,7-(dimethylamino)-9-[[(dimethylamino)acetyl]amino]-1,4,4a,5,5a,6,11,12a-octahydro-3,10,12,12a-tetrahydroxy-1,11-dioxo-2-naphthacenecarboxamide] yielded an MIC (E. coli #311 (MP)) of 4 µg/mL (≈ 6.76 µM), an MIC [1] of 16 µg/mL (≈ 27 µM) and an MIC (E. coli UBMS 90-5 sens) of 32 µg/mL (≈ 54 µM). The MIC [2] was 0.5 µg/mL (≈ 0.845 µM), the MIC (S. aureus IVES 2943) was 4 µg/mL (≈ 6.76 µM) and the MIC [3] was 2 µg/mL (≈ 3.38 µM). The MIC [4] was 0.25 µg/mL (≈ 0.422 µM), the MIC (S. aureus ROSE (MP)) was 8 µg/mL (≈ 13.5 µM) and the MIC (E. faecalis ATCC 29212) was 0.12 µg/mL (≈ 0.203 µM). For the same molecule, the MIC (E. coli J3272 Tet C) was 16 µg/mL (≈ 27 µM), the MIC (S. aureus IVES 1 983) was 4 µg/mL (≈ 6.76 µM) and the MIC (E. coli UBMS 90-4 Tet M) was greater than 32 µg/mL. The MIC (E. coli PRP1 Tet A) was 16 µg/mL (≈ 27 µM), the MIC [5] was 2 µg/mL (≈ 3.38 µM) and the MIC (E. coli J2175) was 32 µg/mL (≈ 54 µM). For the same molecule, the MIC (E. coli UBMS 89-1 Tet M) was 32 µg/mL (≈ 54 µM), the MIC [6] was 0.5 µg/mL (≈ 0.845 µM) and the MIC [7] was greater than 32 µg/mL. The MIC [8] was 0.25 µg/mL (≈ 0.422 µM), the MIC (S. mariescens FPOR 8733) was greater than 32 µg/mL and the MIC [9] was greater than 32 µg/mL. The MIC (E. coli BAJ9003 IMP MUT) was 0.12 µg/mL (≈ 0.203 µM), the MIC [10] was 0.5 µg/mL (≈ 0.845 µM) and the MIC (E. coli UBMS 88-1 Tet B) was greater than 32 µg/mL. The MIC (E. coli ATCC 25922) was 8 µg/mL (≈ 13.5 µM), the MIC (Enterococcus 12201) was 0.12 µg/mL (≈ 0.203 µM) and the MIC (S. aureus NEMC 8769) was 0.12 µg/mL (≈ 0.203 µM). It also gave an MIC (S. aureus UBMS 88-4) of 0.25 µg/mL (≈ 0.422 µM), an MIC (E. coli J3272 Tet D) of 32 µg/mL (≈ 54 µM) and an MIC (S. aureus UBMS 90-3) of 0.12 µg/mL (≈ 0.203 µM). It also gave an MIC (S. aureus SMITH (MP)) of 0.12 µg/mL (≈ 0.203 µM) and an MIC (S. aureus ATCC 29213) of 0.25 µg/mL (≈ 0.422 µM).

— patent publication US5495032A, “Process for producing 7-(substituted)-8-(substituted-9-[(substituted glycyl)amido]-6-demethyl-6-deoxytetracyclines” (priority 1994, dated 1996)
